From patent publication US20120071475A1, “UREA DERIVATIVES HAVING PI3K-INHIBITING ACTIVITY” (SHIONOGI & CO., LTD., priority 2009, published 2012) come the findings set out here.

Data set [1] can be described thus: BA test (oral absorbability, bioavailability). The class given is in vivo. Here is the method:
An experimental material and a method for examining oral absorbability
(1) Animals used: rats or mice were used. (2) Breeding condition: chow and sterilized tap water were allowed to be taken in freely. (3) Setting of a dosage and grouping: a predetermined dosage was administered orally or intravenously. Groups were formed as shown below. (A dosage varied depending on each compound)
Oral administration 1-30 mg/kg (n=2 to 3)
Intravenous administration 0.5-10 mg/kg (n=2 to 3)
(4) Preparation of administered liquid: In oral administration, a solution or suspension was administered. In intravenous administration, after solubilization, the administration was performed. (5) Method of Administration: In oral administration, compulsory administration to the stomach was conducted using an oral probe. In intravenous administration, administration from the caudal vein was conducted using a syringe with an injection needle. (6) Evaluation item: Blood was chronologically collected, and then the drug concentration in blood plasma was measured using a LC/MS/MS. (7) Statistical analysis: With regard to a shift in plasma concentration, the plasma concentration-time area under the curve (AUC) was calculated using a nonlinear least-squares program WinNonlin®. Bioavailability (BA) was calculated from the AUCs of the oral administration group and the intravenous administration group, respectively.

Another data set addresses T1, hERG channel (IKr) (Homo sapiens, UniProt Q12809).
T1 construct: expressed in transfected cells; host or cells: HEK293
The experiment in a line: hERG test (whole-cell patch-clamp, IKr in HEK293 cells). The following applies: human, HEK293 cells expressing hERG channel, pH 7.4, inhibition of maximum tail current (IKr), compound 1 μM. It is filed as cell-based. An outline of the steps: (§1)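 hERG-expressing HEK293 cells, automated whole-cell patch clamp: hold −80 mV, +50 mV for 2 s, then −50 mV for 2 s to record IKr tail current. Compound in extracellular solution (pH 7.4) for 10 min at room temperature; inhibition of maximum tail current calculated versus pre-application and compared with 0.1% DMSO vehicle.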
On the technique in general: hERG is a cardiac potassium channel; its block is linked to QT prolongation.

For data set [2], the target named is T2, human ether-a-go-go related gene (hERG) channel (Homo sapiens, UniProt Q12809).
T2 construct: expressed in transfected cells; host or cells: HEK293
The data set is described as above. The class given is cell-based. To be noted: inhibition of maximum tail current (IKr), HEK293 cell expressing hERG, compound 1 μM, 10 minutes; 1 µM. An outline of the steps: as §1

Data set [3] can be described thus: Solubility test (artificial intestinal juice pH 6.8, 1% DMSO). It is filed as physicochemical. To be noted: artificial intestinal juice pH 6.8 with 1% DMSO, fassgf or other biorelevant, kinetic from dmso stock, 25° C. Here is the method:
The solubility of a compound was determined under a condition in which 1% DMSO was added. 10 mmol/L compound solution was prepared using DMSO, and then 6 μL of the compound solution was added to 594 μL of artificial intestinal juice in pH 6.8 (to 250 mL of 0.2 mol/L potassium dihydrogen phosphate reagent solution was added 118 mL of 0.2 mol/L NaOH reagent solution and water to provide a final volume of 1000 mL). After standing at 25° C. for 16 hours, the mixed solution was filtered with suction. The filtrate was diluted twice with methanol/water (1/1), and then a concentration in the filtration was measured with HPLC or LC/MS/MS by the absolute calibration method.

As a reminder, the inhibition is the percentage by which the read-out fell short of the control. One may read the solubility as the concentration that dissolves in the medium under given conditions. A low value points to a poorly soluble substance.

Values after ≈ are worked out from the molar mass of the structure shown. Some results are limits rather than exact numbers.

T1 sequence (Q12809 whole entry): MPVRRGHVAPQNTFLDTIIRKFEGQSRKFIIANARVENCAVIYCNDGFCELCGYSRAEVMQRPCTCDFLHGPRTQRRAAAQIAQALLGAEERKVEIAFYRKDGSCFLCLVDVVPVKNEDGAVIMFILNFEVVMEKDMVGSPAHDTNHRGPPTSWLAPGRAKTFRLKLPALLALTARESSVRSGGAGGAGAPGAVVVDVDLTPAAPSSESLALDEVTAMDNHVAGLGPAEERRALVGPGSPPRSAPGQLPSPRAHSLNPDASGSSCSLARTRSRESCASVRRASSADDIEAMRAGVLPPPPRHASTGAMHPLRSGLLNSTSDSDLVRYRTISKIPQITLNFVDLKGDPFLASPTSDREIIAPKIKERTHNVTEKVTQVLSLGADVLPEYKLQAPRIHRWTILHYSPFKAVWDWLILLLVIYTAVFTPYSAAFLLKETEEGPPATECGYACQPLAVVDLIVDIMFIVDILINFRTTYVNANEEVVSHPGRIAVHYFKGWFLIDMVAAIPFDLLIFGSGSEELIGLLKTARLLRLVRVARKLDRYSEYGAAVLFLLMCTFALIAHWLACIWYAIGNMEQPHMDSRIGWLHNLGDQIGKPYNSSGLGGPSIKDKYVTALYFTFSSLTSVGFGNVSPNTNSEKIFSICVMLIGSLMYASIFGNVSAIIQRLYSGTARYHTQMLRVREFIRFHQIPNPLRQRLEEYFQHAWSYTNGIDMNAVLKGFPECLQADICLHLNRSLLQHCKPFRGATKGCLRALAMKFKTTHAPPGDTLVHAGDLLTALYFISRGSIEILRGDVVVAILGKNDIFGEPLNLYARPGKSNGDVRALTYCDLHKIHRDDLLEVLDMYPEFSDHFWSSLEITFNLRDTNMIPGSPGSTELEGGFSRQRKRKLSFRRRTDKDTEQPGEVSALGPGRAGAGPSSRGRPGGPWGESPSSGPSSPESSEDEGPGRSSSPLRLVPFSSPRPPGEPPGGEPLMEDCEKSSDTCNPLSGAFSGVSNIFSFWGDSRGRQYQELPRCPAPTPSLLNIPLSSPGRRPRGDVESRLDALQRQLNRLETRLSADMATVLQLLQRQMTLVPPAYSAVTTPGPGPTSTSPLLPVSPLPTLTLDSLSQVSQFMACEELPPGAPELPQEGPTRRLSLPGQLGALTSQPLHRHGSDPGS
T2 sequence (Q12809 whole entry): as above

For the compound `COc1cc(N2CCc3nc(NC(=O)Nc4ccccc4C(=O)NC(C)C)sc3C2)nc(OC)n1` [Compound I-12], in data set [1], the “BA (Rat, 1 mg/kg, Methylcellulose suspension Oral Administration)” value was 46.8%.
The compound `COc1cc(N2CCc3nc(NC(=O)Nc4ccccc4C(=O)NCCF)sc3C2)nc(OC)n1` [Compound I-88] had an inhibition at 10 min, 1 µM at hERG channel (IKr) of 5.7%.
On the same count and under the same terms, then `COc1nc(Cl)cc(N2CCc3nc(NC(=O)Nc4cnccc4C(=O)NC(C)C)sc3C2)n1` [Compound I-91], with 0.9%; and `Cc1nc(NC(=O)Nc2ccccc2C(=O)NC(C)C)sc1-c1ccc(S(C)(=O)=O)c(F)c1` [Compound I-127], with 0.6%.
Still for that read-out and setting: then `CC(C)NC(=O)c1ccccc1NC(=O)Nc1nc2c(s1)CN(c1cncc(C(F)(F)F)c1)CC2` [Compound I-131], with 3.9%.
As to `COc1cc(N2CCc3nc(NC(=O)Nc4ccccc4C(=O)NC(C)C(O)C(F)(F)F)sc3C2)nc(OC)n1` (centres unmarked) [Compound I-139], the “hERG(at 1 μM) % Inhibition” value in data set [2] amounted to 8.5%.
As to `COc1cc(N2CCc3nc(NC(=O)Nc4cn(C)nc4C(=O)NCC(F)(F)F)sc3C2)nc(OC)n1` [Compound I-148], in data set [1], the “BA (Rat, 1 mg/kg, Methylcellulose suspension Oral Administration)” value came out at 45.1%. At hERG channel (IKr), this compound registered an inhibition at 10 min, 1 µM of 3.3%.
For `Cc1nc(NC(=O)Nc2ccccc2C(=O)NC(C)C)sc1-c1csc(S(=O)(=O)N(C)CCN(C)C)c1` [Compound I-191], the solubility at 16 h in data set [3] was more than 50 µM.
The same measure, in the same setting: then `COc1cc(N2CCc3nc(NC(=O)Nc4ccccc4C(=O)NN4CCN(C)CC4)sc3C2)nc(OC)n1` [Compound I-195], with more than 50 µM.
In turn, `COc1nc(Cl)cc(N2CCc3nc(NC(=O)Nc4ccccc4C(=O)NC4CCCOC4)sc3C2)n1` (centres unmarked) [Compound I-197] registered an inhibition at 10 min, 1 µM against hERG channel (IKr) of 4.8%.
For `CC(C)NC(=O)c1ccccc1NC(=O)Nc1nc2c(s1)CN(c1cccc(S(C)(=O)=O)c1)CC2` [Compound I-198], in data set [3], the concentration in solution (solubility at 16 h) came to 10.1 µM (≈ 5.19 µg/mL). For the same compound, the inhibition at 10 min, 1 µM at hERG channel (IKr) was 5.9%.
With `COc1cc(N2CCc3nc(NC(=O)Nc4ccccc4C(=O)NC4CCOCC4)sc3C2)nc(OC)n1` [Compound I-203], the inhibition at 10 min, 1 µM at hERG channel (IKr) was found to be 6.7%.
